From patent US20260184663A1, “INDENE COMPOUNDS, PHARMACEUTICAL COMPOSITIONS THEREOF, AND THEIR THERAPEUTIC APPLICATIONS” (NucMito Pharmaceuticals co. Ltd., priority 2022, published 2026)
Where two headings read alike, the source gives them in different places.

Legend:
Format in all cases: cell-based
SW480 (colon cancer) = test: Antiproliferative activity (CCK-8 cell viability), SW480; settings: Homo sapiens, 72 h; for inhibition at 3.3 µM: Compound concentration: 3.3 μM; for inhibition at 10 µM: Compound concentration: 10 μM; for inhibition at 30 µM: Compound concentration: 30 μM
Procedure, shortened: (§1)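 Cells were seeded at 2,000-5,000/well (HeLa in MEM, HepG2 and SW480 in DMEM, A549 in F-12K, all with 10% FBS) and treated with compound at 3.3, 10 or 30 μM for 72 h at 37° C. CCK-8 was added for 4 h, absorbance was read at 450 nm, and viability was expressed relative to DMSO-treated wells.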

[1] = tested on: MDA-MB-231 (breast cancer); test: Antiproliferative activity (CCK-8 cell viability), MDA-MB-231; settings: Homo sapiens, 72 h; for inhibition at 3.3 µM: Compound concentration: 3.3 μM; for inhibition at 10 µM: Compound concentration: 10 μM; for inhibition at 30 µM: Compound concentration: 30 μM
Procedure, shortened: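 In this CCK-8 viability assay, MDA-MB-231 cells maintained in Dulbecco's modified Eagle's medium containing 10% fetal bovine serum were placed in 96-well plates (2,000-5,000 cells/well) and treated with compound for 72 h at 37° C. A 4 h incubation with 10 μL CCK-8 followed, plates were read at 450 nm, and viability was expressed against DMSO vehicle wells across replicates.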

HepG2 (liver cancer) = test: Antiproliferative activity (CCK-8 cell viability), HepG2; settings: Homo sapiens, 72 h, read-out: Antiproliferative activity in cancerous cells, HepG2 (inhibition of cell growth); for inhibition at 3.3 µM: Compound concentration: 3.3 μM; for inhibition at 10 µM: Compound concentration: 10 μM
Procedure, shortened: as §1

[2] = tested on: A549 (lung adenocarcinoma); test: Antiproliferative activity (CCK-8 cell viability), A549; settings: Homo sapiens, 72 h, read-out: Antiproliferative activity in cancerous cells, A549 (inhibition of cell growth); for inhibition at 3.3 µM: Compound concentration: 3.3 μM; for inhibition at 10 µM: Compound concentration: 10 μM
Procedure, shortened: as §1

[3] = tested on: A431 (epidermoid carcinoma); test: Antiproliferative activity (CCK-8 cell viability), A431; settings: Homo sapiens, 72 h, read-out: Antiproliferative activity in cancerous cells, A431 (inhibition of cell growth); for inhibition at 3.3 µM: A-431, Compound concentration: 3.3 μM; for inhibition at 10 µM: A-431, Compound concentration: 10 μM
Procedure, shortened: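 Cell viability of compound-treated A431 cells was measured with a Cell Counting Kit-8. Each well received 10 μL of CCK-8 after 72 h of compound exposure, followed by 4 h incubation at 37° C. and a 450 nm plate-reader measurement. Percent viability was calculated relative to DMSO controls across replicates.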

[4] = tested on: B16F10 (malignant melanoma); test: Antiproliferative activity (CCK-8 cell viability), B16F10; settings: Mus musculus, 72 h, read-out: Antiproliferative activity in cancerous cells, B16F10 (inhibition of cell growth); for inhibition at 3.3 µM: B16-F10, Compound concentration: 3.3 μM; for inhibition at 10 µM: B16-F10, Compound concentration: 10 μM
Procedure, shortened: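 Attached B16F10 cells in 96-well plates were incubated with compound at 37° C for 72 h, followed by 10 μL CCK-8 reagent per well and a further 4 h incubation. A multi-well plate reader measured absorbance at 450 nm. Percent viability across replicates was calculated against DMSO vehicle-treated cells.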

HeLa (cervical cancer) = test: Antiproliferative activity (CCK-8 cell viability), HeLa; settings: Homo sapiens, 72 h, read-out: Antiproliferative activity in cancerous cells, HELA (inhibition of cell growth); for inhibition at 3.3 µM: Compound concentration: 3.3 μM; for inhibition at 10 µM: Compound concentration: 10 μM
Procedure, shortened: as §1

[5] = read-out: Antiproliferative activity in cancerous cells, SW480 (inhibition of cell growth)
[6] = read-out: Antiproliferative activity in cancerous cells, MDA-MB-231 (inhibition of cell growth)

SMILES	inhibition at 3.3 µM (SW480 (colon cancer); [5]) [%]	inhibition at 10 µM (SW480 (colon cancer); [5]) [%]	inhibition at 3.3 µM [1, 6] [%]	inhibition at 10 µM [1, 6] [%]	inhibition at 3.3 µM (HepG2 (liver cancer)) [%]	inhibition at 10 µM (HepG2 (liver cancer)) [%]	inhibition at 3.3 µM [2] [%]	inhibition at 10 µM [2] [%]	inhibition at 3.3 µM [3] [%]	inhibition at 10 µM [3] [%]	inhibition at 3.3 µM [4] [%]	inhibition at 10 µM [4] [%]	inhibition at 3.3 µM (HeLa (cervical cancer)) [%]	inhibition at 10 µM (HeLa (cervical cancer)) [%]	also measured
CC1=C(CC(=O)O)c2cc(F)ccc2/C1=C\c1ccc(S(=O)(=O)c2ccc(F)cc2)cc1 [C40, (Z)-2-(5-Fluoro-1-(4-((4-fluorophenyl)sulfonyl)benzylidene)-2-methyl-1H-inden-3-yl)acetic acid]	< 30	≥ 50	30 to 50	30 to 50	< 30	≥ 50	< 30	30 to 50	30 to 50	30 to 50	< 30	≥ 50	< 30	≥ 50	inhibition at 30 µM ([1]; read-out: Antiproliferative activity in cancerous cells, MDA-MB-231): 30 to 50%
CC1=C(CC(=O)O)c2cc(Cl)ccc2/C1=C/c1ccc(Oc2ccc(F)c(F)c2)cc1 [E29, (E)-2-(5-Chloro-1-(4-(3,4-difluorophenoxy)benzylidene)-2-methyl-1H-inden-3-yl)acetic acid]	< 30	≥ 50	≥ 50	≥ 50	< 30	≥ 50	< 30	≥ 50	< 30	30 to 50	≥ 50	≥ 50	≥ 50	≥ 50	inhibition at 30 µM (SW480 (colon cancer); [5]): ≥ 50%; inhibition at 30 µM [1, 6]: ≥ 50%; inhibition at 30 µM (HepG2 (liver cancer); Compound concentration: 30 μM): ≥ 50%; inhibition at 30 µM ([2]; Compound concentration: 30 μM): ≥ 50%; inhibition at 30 µM ([3]; A-431, Compound concentration: 30 μM): ≥ 50%; inhibition at 30 µM ([4]; B16-F10, Compound concentration: 30 μM): ≥ 50%; inhibition at 30 µM (HeLa (cervical cancer); Compound concentration: 30 μM): ≥ 50%
CC1=C(CC(=O)O)c2cc(F)ccc2/C1=C\c1ccc(Oc2ccc(F)cc2Cl)cc1 [C68, (Z)-2-(1-(4-(2-Chloro-4-fluorophenoxy)benzylidene)-5-fluoro-2-methyl-1H-inden-3-yl)acetic acid]	≥ 50	≥ 50	< 30	< 30	< 30	≥ 50	< 30	≥ 50	30 to 50	≥ 50	< 30	< 30	< 30	< 30	
CC1=C(CC(=O)O)c2cc(F)ccc2/C1=C\c1ccc(Oc2ccc(I)cc2)cc1 [C57, (Z)-2-(5-Fluoro-1-(4-(4-iodophenoxy)benzylidene)-2-methyl-1H-inden-3-yl)acetic acid]	< 30	≥ 50	< 30	≥ 50	30 to 50	≥ 50	30 to 50	≥ 50	30 to 50	≥ 50	≥ 50	≥ 50	< 30	≥ 50	
CC1=C(CC(=O)O)c2cc(F)ccc2/C1=C\c1ccc(COc2ccc(Cl)cc2)cc1Br [B72, (Z)-2-(1-(2-Bromo-4-((4-chlorophenoxy)methyl)benzylidene)-5-fluoro-2-methyl-1H-inden-3-yl)acetic acid]	30 to 50	30 to 50	30 to 50	30 to 50	≥ 50	≥ 50	≥ 50	≥ 50	≥ 50	≥ 50	≥ 50	≥ 50	≥ 50	≥ 50	inhibition at 30 µM (SW480 (colon cancer); read-out: Antiproliferative activity in cancerous cells, SW480): 30 to 50%
CC1=C(CC(=O)O)c2cc(F)ccc2/C1=C\c1ccc(Oc2ccc(Cl)cc2C)cc1 [C55, (Z)-2-(1-(4-(4-Chloro-2-methylphenoxy)benzylidene)-5-fluoro-2-methyl-1H-inden-3-yl)acetic acid]	< 30	≥ 50	< 30	≥ 50	< 30	≥ 50	< 30	< 30	30 to 50	≥ 50	≥ 50	≥ 50	≥ 50	≥ 50	
CC1=C(CC(=O)O)c2cc(F)ccc2/C1=C\c1ccc(Oc2ccc(Cl)cc2)cc1F [C78, (Z)-2-(1-(4-(4-Chlorophenoxy)-2-fluorobenzylidene)-5-fluoro-2-methyl-1H-inden-3-yl)acetic acid]	< 30	30 to 50	≥ 50	≥ 50	< 30	≥ 50	≥ 50	≥ 50	< 30	≥ 50	< 30	≥ 50	< 30	≥ 50	
CC1=C(CC(=O)O)c2cc(Br)ccc2/C1=C\c1cccc(Oc2ccc(Cl)cc2)c1 [C108, (Z)-2-(5-Bromo-1-(3-(4-chlorophenoxy)benzylidene)-2-methyl-1H-inden-3-yl)acetic acid]	< 30	30 to 50	≥ 50	≥ 50	< 30	≥ 50	< 30	≥ 50	≥ 50	≥ 50	≥ 50	≥ 50	< 30	≥ 50	
CC1=C(CC(=O)O)c2cc(Cl)ccc2/C1=C\c1cccc(Oc2ccc(O)cc2)c1 [C104, (Z)-2-(5-Chloro-1-(3-(4-hydroxyphenoxy)benzylidene)-2-methyl-1H-inden-3-yl)acetic acid]	< 30	≥ 50	< 30	≥ 50	< 30	≥ 50	< 30	≥ 50	≥ 50	≥ 50	≥ 50	≥ 50	≥ 50	≥ 50	
